Values after ≈ are worked out from the molar mass of the structure shown. Where two headings read alike, the source gives them in different places.
What was measured:
E. coli ATCC 25922 = assay: Microbiological drug diffusion assay, standalone compounds in absence of beta-lactamase enzymes; assay type: cell-based; conditions: Escherichia coli, read-out: Inhibition zone diameter
Procedure: (§1) Next, the beta-lactamase stability of some of these compounds was evaluated. In a typical stability study, ESBL enzymes from K. pneumoniae S48 producing Metalo betalactamase (NDM4) and Class A (CTX-M, SHV, TEM) beta-lactamase were isolated from freshly grown culture by 5 repetitive cycles of freeze and thaw in liquid nitrogen. […] After the stipulated incubation duration, the test compounds were extracted from the reaction mixture by the addition of 0.5 ml of Acetonitrile in 1:1 ratio (final concentration of test compound—40 μg/ml) and centrifuged at 12000 rpm for 2 min to separate precipitated protein. The activity of test compounds was measured from the supernatant by performing microbiological drug diffusion assay. For drug diffusion assay, Muller-Hinton Agar (MHA) seeded with E. coli ATCC 25922 was poured on to a bioassay plate placed on a flat surface and allowed to solidify. Appropriate concentration of the standalone and enzyme treated test compound dilutions were added to 6 mm wells cut with the help of a borer. The antibacterial activity of the test compounds was measured in terms of zones of inhibition appearing after 18-24 hours of incubation at 37° C. Measurement of diameter of zone of inhibition was undertaken to the nearest whole value with the help of ruler.

[1] = test system: K. pneumonia S48 expressing multiple ESBLs including MBL (NDM4) and Class A (CTX-M, SHV, TEM); assay type: cell-based, K. pneumoniae; conditions: Cefepime 8 μg/ml, Compound of Formula (III) 2 μg/ml, Clavulanic acid 2 μg/ml, Mecillinam 2 μg/ml, Imipenem 8 μg/ml
Procedure: Log phase cultures were diluted to desired inoculums in flasks with MHB, containing various drug concentrations. Flasks were incubated at 35° C. in orbital shaker with rotational speed of 125 rpm. […] Plates were incubated for 24 hours at 35° C. and colonies were enumerated to determine the colony forming units (CFU) per ml volume.

[2] = test system: Pseudomonas aeruginosa NCTC 13437 producing carbapenem hydrolyzing MBL (VIM 10) & Class A (VEB1); assay: Time kill study (viability count); assay type: cell-based; conditions: Cefepime 8 μg/ml, Compound of Formula (III) 8 μg/ml, Imipenem 16 μg/ml
Procedure: (§2) The antibacterial effectiveness of various antibacterial agents in presence of a compound of Formula (III) was investigated and the results are detailed below. In a typical study, overnight cultures in Trypticase soya broth (TSB) were brought to log phase by 1 in 10 dilution in fresh cation adjusted Mueller Hinton Broth (MHB) and incubation for 2.5 hours at 35° C. in orbital shaker. Log phase cultures were diluted to desired inoculums in flasks with MHB, containing various drug concentrations. Flasks were incubated at 35° C. in orbital shaker with rotational speed of 125 rpm. Viability count was determined by 1 in 10 serial dilutions of samples in normal saline and surface spreading of 10 μl of dilutions in duplicate on Trypticase soya agar plates. Plates were incubated for 24 hours at 35° C. and colonies were enumerated to determine the colony forming units (CFU) per ml volume.

[3] = test system: Acinetobacter baumannii NCTC 13304 producing carbapenem hydrolyzing Class D OXA enzyme (OXA 27); assay: Time kill study (viability count); assay type: cell-based; conditions: Cefepime 8 μg/ml, Compound of Formula (III) 8 μg/ml, Imipenem 16 μg/ml
Procedure: as §2

[4] = test system: MDR P. mirabilis G 186 producing NDM & TEM β-lactamases; assay: Time kill study at MFC and MSC; assay type: cell-based; conditions: Cefepime 8 mcg/ml (MFC), Compound of Formula (III) 0.25 mcg/ml (MSC), Imepenem 8 mcg/ml
Procedure: (§3) The synergistic killing effect of the combinations according to invention was studied by performing time kill studies. In a typical time kill study, the freshly grown cultures were diluted to the required cell density (initial starting inoculum) in Cation adjusted Muller Hinton broth medium (BD, USA). The antibacterial agents (either alone or in combination) at the required concentrations were added into the culture-containing medium. The samples were incubated under shaking condition (120 rpm) at 37° C. Enumeration of viable bacterial count was done every 2 hour by diluting in normal saline and plating on to the Tryptic Soya Agar plates (BD, USA). The plates were incubated for 24 hours to arrive at the viable bacterial count. The results are expressed in terms of Log CFU per ml. In general, the decrease of 1 Log CFU/ml, corresponds to 90% killing of bacteria. Similarly, 2 Log CFU/ml reductions indicates to 99% killing of bacteria and 3 Log CFU/ml reductions is equal to 99.9% killing of bacteria.

[5] = test system: MDR Klebsiella pneumoniae B 88 producing NDM, SHV & TEM beta-lactamases; assay: Time kill study at MFC and MSC; assay type: cell-based; conditions: Cefepime 8 mcg/ml (MFC), Compound of Formula (III) 0.12 mcg/ml (MSC), Imepenem 8 mcg/ml
Procedure: as §3

Pseudomonas PBP 1A = biological target: T1, Pseudomonas PBP 1A (Pseudomonas aeruginosa, UniProt Q07806); assay: PBP binding assay (Bocillin FL competition)
T1 construct: endogenous in cells
Procedure: (§4) The phrase “selective and high affinity PBP binder” refers to a PBP binder which binds to only one PBP with very high affinity. In general, the term “selective and high affinity PBP binder” also includes those binders where a substantial fraction of binder selectively binds to only one PBP with high affinity. […]. The term “IC50 value” of a compound refers to the concentration of the compound that reduces the binding of Bocillin-FL to PBPs by 50% as compared to when no compound was added to the reaction.
(§5) A compound of Formula (III) was prepared using the procedure disclosed in PCT International Application No. PCT/IB2012/054290 and was evaluated for its PBP binding affinity profile. […] The reaction mixtures were then denatured with 20 μl each of SDS-denaturing solution at 100° C. for 3 min PBPs were separated through 10% SDS polyacrylamide gel electrophoresis (Bio-Rad Laboratories, Hercules, Calif.). The protein gels were rinsed in water immediately after electrophoresis. […] […].

Pseudomonas PBP 5/6 = Pseudomonas PBP 5/6 (Pseudomonas aeruginosa, UniProt G3XD74); assay: PBP binding assay (Bocillin FL competition); conditions: read-out: IC50
Procedure: as §4, §5

[6] = test system: ESBL enzymes from K. pneumoniae S48 producing Metalo betalactamase (NDM4) and Class A (CTX-M, SHV, TEM) beta-lactamase; assay: Beta-lactamase stability study (crude enzyme extract, then drug diffusion assay on E. coli ATCC 25922); assay type: biochemical; conditions: for Inhibition zone diameter after treatment with beta-lactamase enzyme: 40 μg/ml, zone on E. coli ATCC 25922
Procedure: as §1

K pneumoniae J 102 = assay: MIC determination (agar dilution, CLSI); assay type: cell-based; conditions: K pneumoniae J 102 (TEM1, SHV5, OMP); standalone
Procedure: (§6) In a typical procedure for determining MIC values, overnight grown bacterial cultures were diluted appropriately and inoculated on the agar media containing doubling concentrations of the test compounds. Observation for growth or no growth was performed after 16-20 hours of incubation at 35±2° C. in ambient air. The overall procedure was performed as per Clinical and Laboratory Standards Institute (CLSI) recommendations (Clinical and Laboratory Standards Institute (CLSI), Performance Standards for Antimicrobial Susceptibility Testing, 20th Informational Supplement, M 100-S20, Volume 30, No. 1, 2010).

K pneumoniae J 101 = assay: MIC determination (agar dilution, CLSI); assay type: cell-based; conditions: K pneumoniae J 101 (TEM1, SHV12, OMP); standalone
Procedure: as §6

K pneumoniae J 104 = assay: MIC determination (agar dilution, CLSI); assay type: cell-based; conditions: K pneumoniae J 104 (TEM1, SHV11, CTX-M, OMP); standalone
Procedure: as §6

K pneumoniae J 105 = assay: MIC determination (agar dilution, CLSI); assay type: cell-based; conditions: K pneumoniae J 105 (TEM1, SHV2, CTX-M, OMP); standalone
Procedure: as §6

Pseudomonas PBP 5/6, sequence (G3XD74 entry or part of it): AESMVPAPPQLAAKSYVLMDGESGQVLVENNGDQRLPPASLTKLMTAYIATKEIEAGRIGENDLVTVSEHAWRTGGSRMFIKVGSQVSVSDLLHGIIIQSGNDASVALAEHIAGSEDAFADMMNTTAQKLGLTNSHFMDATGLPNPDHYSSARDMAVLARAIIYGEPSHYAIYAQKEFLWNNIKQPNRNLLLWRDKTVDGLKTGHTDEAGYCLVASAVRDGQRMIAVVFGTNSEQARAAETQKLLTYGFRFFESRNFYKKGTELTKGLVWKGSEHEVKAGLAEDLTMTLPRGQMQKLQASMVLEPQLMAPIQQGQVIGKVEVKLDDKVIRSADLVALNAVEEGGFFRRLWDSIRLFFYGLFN
T1 sequence (Q07806 whole entry): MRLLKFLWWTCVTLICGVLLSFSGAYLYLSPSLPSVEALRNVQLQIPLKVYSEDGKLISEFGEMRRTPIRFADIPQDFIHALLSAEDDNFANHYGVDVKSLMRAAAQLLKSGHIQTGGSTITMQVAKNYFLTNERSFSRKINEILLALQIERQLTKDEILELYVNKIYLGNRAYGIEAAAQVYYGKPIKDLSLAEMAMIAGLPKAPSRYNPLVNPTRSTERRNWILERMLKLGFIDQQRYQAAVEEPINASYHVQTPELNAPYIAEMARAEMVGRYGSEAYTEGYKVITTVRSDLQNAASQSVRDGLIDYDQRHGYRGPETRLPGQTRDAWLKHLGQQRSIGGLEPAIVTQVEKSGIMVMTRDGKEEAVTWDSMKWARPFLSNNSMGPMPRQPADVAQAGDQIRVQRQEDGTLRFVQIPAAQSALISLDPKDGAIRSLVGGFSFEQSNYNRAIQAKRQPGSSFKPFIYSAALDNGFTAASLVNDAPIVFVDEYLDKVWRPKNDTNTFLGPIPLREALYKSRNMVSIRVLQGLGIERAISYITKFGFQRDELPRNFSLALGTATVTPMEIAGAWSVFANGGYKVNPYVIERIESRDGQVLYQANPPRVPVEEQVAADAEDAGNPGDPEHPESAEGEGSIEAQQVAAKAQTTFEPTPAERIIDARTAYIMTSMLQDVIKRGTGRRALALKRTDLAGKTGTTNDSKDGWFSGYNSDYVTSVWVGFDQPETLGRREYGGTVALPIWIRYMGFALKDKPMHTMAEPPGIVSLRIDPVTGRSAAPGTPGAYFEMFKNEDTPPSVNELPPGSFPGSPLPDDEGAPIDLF

C[C@@H](O)[C@H]1C(=O)N2C(C(=O)O)=C(SCCN=CN)C[C@H]12 [Imipenem]
zone of inhibition at 40 µg/mL (E. coli ATCC 25922; ATCC25922, 40 μg/ml, no beta-lactamase, 0 hour): 22 mm | zone of inhibition at 40 µg/mL (E. coli ATCC 25922; ATCC25922, 40 μg/ml, no beta-lactamase, 1 hour): 22 mm | zone of inhibition at 40 µg/mL (E. coli ATCC 25922; ATCC25922, 40 μg/ml, no beta-lactamase, 2 hours): 22 mm | zone of inhibition at 40 µg/mL (E. coli ATCC 25922; ATCC25922, 40 μg/ml, no beta-lactamase, 24 hours): 22 mm | Bacterial count ([1]; 0 hour): 5.5 log (CFU/ml) | Bacterial count ([1]; 2 hours): 3.0 log (CFU/ml) | Bacterial count ([1]; 4 hours): 3.0 log (CFU/ml) | Bacterial count ([1]; 6 hours): 4.0 log (CFU/ml) | Bacterial count ([1]; 24 hours): 8.69 log (CFU/ml) | Bacterial count ([2]; 0 hour): 6.0 log (CFU/ml) | Bacterial count ([2]; 2 hours): 7.2 log (CFU/ml) | Bacterial count ([2]; 4 hours): 7.9 log (CFU/ml) | Bacterial count ([2]; 6 hours): 7.9 log (CFU/ml) | Bacterial count ([2]; 12 hours): 8.3 log (CFU/ml) | Bacterial count ([3]; 0 hour): 6.3 log (CFU/ml) | Bacterial count ([3]; 2 hours): 7.2 log (CFU/ml) | Bacterial count ([3]; 4 hours): 7.9 log (CFU/ml) | Bacterial count ([3]; 6 hours): 7.9 log (CFU/ml) | Bacterial count ([3]; 8 hours): 8 log (CFU/ml) | Bacterial count ([4]; 0 hour): 6.58 Log10 CFU/ml | Bacterial count ([4]; 2 hours): 7.2 Log10 CFU/ml | Bacterial count ([4]; 4 hours): 9.45 Log10 CFU/ml | Bacterial count ([4]; 6 hours): 8.65 Log10 CFU/ml | Bacterial count ([4]; 8 hours): 8.85 Log10 CFU/ml | Bacterial count ([5]; 0 hour): 6.14 Log10 CFU/ml | Bacterial count ([5]; 2 hours): 8.65 Log10 CFU/ml | Bacterial count ([5]; 4 hours): 8.7 Log10 CFU/ml | Bacterial count ([5]; 6 hours): 8.74 Log10 CFU/ml | Bacterial count ([5]; 8 hours): 8.78 Log10 CFU/ml

CC1(C)S[C@@H]2[C@H](/N=C/N3CCCCCC3)C(=O)N2[C@H]1C(=O)O [Mecillinam]
zone of inhibition at 40 µg/mL (E. coli ATCC 25922; ATCC25922, 0 h): 15.5 mm | zone of inhibition at 40 µg/mL (E. coli ATCC 25922; ATCC25922, 1 h): 15.5 mm | zone of inhibition at 40 µg/mL (E. coli ATCC 25922; ATCC25922, 2 h): 15.5 mm | zone of inhibition at 40 µg/mL (E. coli ATCC 25922; ATCC25922, 24 h): 15.5 mm | IC50 (Pseudomonas PBP 1A): > 12.3 µM | IC50 (Pseudomonas PBP 5/6): > 12.3 µM | Inhibition zone diameter after treatment with beta-lactamase enzyme ([6]; 0 hour incubation at 37° C.): 15.5 mm | Inhibition zone diameter after treatment with beta-lactamase enzyme ([6]; 1 hour incubation at 37° C.): 12 mm | Inhibition zone diameter after treatment with beta-lactamase enzyme ([6]; 2 hours incubation at 37° C.): 0 mm | Inhibition zone diameter after treatment with beta-lactamase enzyme ([6]; 24 hours incubation at 37° C.): 0 mm | Stability to beta-lactamase (in words) ([6]; carbapenem hydrolyzing metallo beta-lactamase, up to 24 hours): not stable to the beta-lactamase

C[C@@H](O)[C@H]1C(=O)N2C(C(=O)O)=C(S[C@@H]3CN[C@H](C(=O)N(C)C)C3)[C@H](C)[C@H]12 [Meropenem]
MIC (K pneumoniae J 102): 8 µg/mL (≈ 20.9 µM) | MIC (K pneumoniae J 101): 4 µg/mL (≈ 10.4 µM) | MIC (K pneumoniae J 104): 4 µg/mL (≈ 10.4 µM) | MIC (K pneumoniae J 105): 4 µg/mL (≈ 10.4 µM)

From patent publication US20170172994A1, “COMPOSITIONS AND METHODS FOR TREATING BACTERIAL INFECTIONS” (WOCKHARDT LIMITED, priority 2013, published 2017)
